Assay results as given in paper PMC10403574, “Discovery of a pyrrole-pyridinimidazole derivative as novel SIRT6 inhibitor for sensitizing pancreatic cancer to gemcitabine” (Cell Death & Disease, 2023).

Legend:
HDAC2 = HDAC2 (Homo sapiens, UniProt Q92769); test: Deacetylation activity selectivity, HDAC2; assay type: biochemical
From the text: (§1) Based on the above results, 8a was further investigated in this study. […] To further evaluate the selectivity of 8a for SIRT6, we examined the effect of 8a on the deacetylation activity of other HDAC family members, including HDAC1-HDAC11, SIRT1-SIRT3 and SIRT5. […] Furthermore, to confirm binding of 8a to SIRT6 in cells, we carried out the cellular thermal shift assay (CETSA). The CETSA approach builds on the thermal shift assay concept where ligand binding to its target protein enhances the target protein stability. We observed that the thermal stability of SIRT6 increased after 8a treatment (Figs. 2c, d).

HDAC6 = HDAC6 (Homo sapiens, UniProt Q9UBN7); test: Deacetylation activity selectivity, HDAC6; assay type: biochemical
From the text: as §1

HDAC10 = HDAC10 (Homo sapiens, UniProt Q969S8); test: Deacetylation activity selectivity, HDAC10; assay type: biochemical
From the text: as §1

[1] = test system: SIRT6 mutants (E140A/R195A, T184A/S191A/P193A/E283A, E22A and D63A); test: FDL assay on other SIRT6 mutants; assay type: biochemical, human; details: three mutants
Protocol: Fluor-De-Lys (FDL) assays were used for the examination of the deacetylation activities of sirtuins as described previously. For the detection of SIRT6 activity, the 50-μL reaction mixture contained 5 μM SIRT6, 2.5 mM NAD^+ (β-Nicotinamide adenine dinucleotide hydrate, Sigma, N1636), 75 μM RHKK-Ac-AMC (GL Biochem, Shanghai), compounds/DMSO, and assay buffer. The reactions were incubated at 37 °C for 2 h, added 50 μL stop solution (40 mM nicotinamide, 6 mg/mL trypsin) at 25 °C for 30 min. Fluorescence intensity was measured at an excitation wavelength of 360 nm and an emission wavelength of 460 nm. IC50 values were calculated in GraphPad Prism version 8.00.
To explore the interaction mechanism, we performed the molecular docking experiment between SIRT6 (PDB ID: 6QCJ) and 8a. […] 8a mainly formed hydrogen bond with the backbone amino group of D187 and the ribose hydroxyl group of the coenzyme NAD^+, and stabilized the whole system by hydrophobic interactions with key amino acids such as I8, V70, W71, F82 and F86 (Fig. 2g). To verify this binding model, the mutant (V70A and F86A) of SIRT6 was constructed by site mutation. […] Moreover, there were also some other potential binding pockets predicted by molecular docking (data not shown). Based on the prediction, we constructed other two SIRT6 mutants (E140A/R195A and T184A/S191A/P193A/E283A). […]

BXPC-3 cells = test: MTT proliferation assay, BXPC-3; assay type: cell-based; details: 72 h
Protocol: BXPC-3 and PANC-1 cells were plated in 96-well plates at 5000 cells per well. After 12 h attachment, varying concentrations of 8a were added into the culture medium for 72 h. Then 10 μL MTT (5 mg/ml) solution was added into per well for 4 h at 37 °C. After removing medium, formazan crystals were dissolved in 150 µL DMSO. The cells viability was quantified by measuring the absorbance at 570 nm.

NIT-1 cells = test: Cell glucose uptake assay, NIT-1; assay type: cell-based; details: NIT-1, 8a (3.125, 6.25, 12.5 μM) + insulin (100 nM) vs insulin only, 30 min
Protocol: The NIT-1 and β-TC-6 cells were added to the wells of 12-well plates and incubated overnight. Then the culture medium without FBS was incubated for 6 h, and different concentrations of 8a (3.125, 6.25, 12.5 μM), insulin (100 nM) or their combination were added for 30 min. Glucose uptake was determined using a Glucose Uptake Assay Kit (Jiancheng, Nanjing).

SIRT6 [2] = molecular target: T1, SIRT6 (Homo sapiens, UniProt Q8N6T7); test: Biolayer interferometry (BLI) binding; design: The human full-length SIRT6 gene was inserted into the prokaryotic expression vector (pET-28a (+)); inferred from the pET-28a(+) vector, Ni-NTA purification and Ni-NTA biosensor loading); made in house; host or cells: Escherichia coli BL21 (DE3); details: Octet RED, Ni-NTA biosensors, 25 °C
Protocol: Binding assays were performed using Ni-NTA biosensors on the Octet® Red96 system (ForteBio, Menlo Park, CA) in 96-well microplates and measuring changes wavelength shift (in nm) over time (s). All steps were carried out at 25 °C with the plate shaking speed of 1000 rpm. The total working volume was 200 μL in 96-well microplate (Greiner Bio-one, Germany). The SIRT6 protein and compounds were diluted with phosphate-buffered saline (PBS, pH 7.4). Ni-NTA biosensors were prewetted for at least 10 min in PBS prior to the assay. Afterwards, the Ni-NTA biosensors were immobilized for 180 s with 200 μL culture containing 20 μg/mL SIRT6. After loading, sensors were washed in PBS buffer for another 120 s and transferred to wells containing different concentrations of compound 8a (0, 12.5, 25, 50, 100 μM) for binding. Finally, the dissociation step was carried out in kinetic buffer for 180 s. The assay data were processed and calculated using the ForteBio Octet RED analysis software.

SIRT6 [3] = molecular target: T1, SIRT6; test: Fluor-De-Lys (FDL) SIRT6 deacetylation assay; assay type: biochemical; design: The human full-length SIRT6 gene was inserted into the prokaryotic expression vector (pET-28a (+)); inferred from the pET-28a(+) vector, Ni-NTA purification and Ni-NTA biosensor loading); made in house; host or cells: Escherichia coli BL21 (DE3)
[4] = Lineweaver–Burk plot, RHKK-Ac-AMC and NAD+ substrates

T1 sequence (Q8N6T7 whole entry): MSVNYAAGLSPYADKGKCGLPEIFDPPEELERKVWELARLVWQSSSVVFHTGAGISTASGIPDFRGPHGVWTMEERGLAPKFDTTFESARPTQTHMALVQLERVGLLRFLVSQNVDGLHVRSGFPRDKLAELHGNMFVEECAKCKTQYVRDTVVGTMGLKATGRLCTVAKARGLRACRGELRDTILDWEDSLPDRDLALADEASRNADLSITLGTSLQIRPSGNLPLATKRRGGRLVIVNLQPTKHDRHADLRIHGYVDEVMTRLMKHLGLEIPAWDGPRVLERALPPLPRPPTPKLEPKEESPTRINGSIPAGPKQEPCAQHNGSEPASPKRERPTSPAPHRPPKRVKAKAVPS
Sequence of HDAC2 (Q92769 whole entry, species assumed): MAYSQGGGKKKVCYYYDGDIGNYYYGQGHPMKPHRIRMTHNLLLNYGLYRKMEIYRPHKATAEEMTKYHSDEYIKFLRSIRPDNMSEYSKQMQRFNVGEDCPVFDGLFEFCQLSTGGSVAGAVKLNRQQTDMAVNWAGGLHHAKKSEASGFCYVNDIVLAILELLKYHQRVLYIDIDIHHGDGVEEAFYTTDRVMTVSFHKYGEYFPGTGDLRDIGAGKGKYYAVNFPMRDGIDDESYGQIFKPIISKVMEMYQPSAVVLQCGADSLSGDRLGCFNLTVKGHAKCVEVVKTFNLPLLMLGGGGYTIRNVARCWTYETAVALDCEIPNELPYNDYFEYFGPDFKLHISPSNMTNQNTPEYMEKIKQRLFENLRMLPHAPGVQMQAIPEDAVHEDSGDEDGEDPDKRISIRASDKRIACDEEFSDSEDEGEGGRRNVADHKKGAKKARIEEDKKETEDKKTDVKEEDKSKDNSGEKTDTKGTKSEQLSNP
Sequence of HDAC6 (Q9UBN7 whole entry, species assumed): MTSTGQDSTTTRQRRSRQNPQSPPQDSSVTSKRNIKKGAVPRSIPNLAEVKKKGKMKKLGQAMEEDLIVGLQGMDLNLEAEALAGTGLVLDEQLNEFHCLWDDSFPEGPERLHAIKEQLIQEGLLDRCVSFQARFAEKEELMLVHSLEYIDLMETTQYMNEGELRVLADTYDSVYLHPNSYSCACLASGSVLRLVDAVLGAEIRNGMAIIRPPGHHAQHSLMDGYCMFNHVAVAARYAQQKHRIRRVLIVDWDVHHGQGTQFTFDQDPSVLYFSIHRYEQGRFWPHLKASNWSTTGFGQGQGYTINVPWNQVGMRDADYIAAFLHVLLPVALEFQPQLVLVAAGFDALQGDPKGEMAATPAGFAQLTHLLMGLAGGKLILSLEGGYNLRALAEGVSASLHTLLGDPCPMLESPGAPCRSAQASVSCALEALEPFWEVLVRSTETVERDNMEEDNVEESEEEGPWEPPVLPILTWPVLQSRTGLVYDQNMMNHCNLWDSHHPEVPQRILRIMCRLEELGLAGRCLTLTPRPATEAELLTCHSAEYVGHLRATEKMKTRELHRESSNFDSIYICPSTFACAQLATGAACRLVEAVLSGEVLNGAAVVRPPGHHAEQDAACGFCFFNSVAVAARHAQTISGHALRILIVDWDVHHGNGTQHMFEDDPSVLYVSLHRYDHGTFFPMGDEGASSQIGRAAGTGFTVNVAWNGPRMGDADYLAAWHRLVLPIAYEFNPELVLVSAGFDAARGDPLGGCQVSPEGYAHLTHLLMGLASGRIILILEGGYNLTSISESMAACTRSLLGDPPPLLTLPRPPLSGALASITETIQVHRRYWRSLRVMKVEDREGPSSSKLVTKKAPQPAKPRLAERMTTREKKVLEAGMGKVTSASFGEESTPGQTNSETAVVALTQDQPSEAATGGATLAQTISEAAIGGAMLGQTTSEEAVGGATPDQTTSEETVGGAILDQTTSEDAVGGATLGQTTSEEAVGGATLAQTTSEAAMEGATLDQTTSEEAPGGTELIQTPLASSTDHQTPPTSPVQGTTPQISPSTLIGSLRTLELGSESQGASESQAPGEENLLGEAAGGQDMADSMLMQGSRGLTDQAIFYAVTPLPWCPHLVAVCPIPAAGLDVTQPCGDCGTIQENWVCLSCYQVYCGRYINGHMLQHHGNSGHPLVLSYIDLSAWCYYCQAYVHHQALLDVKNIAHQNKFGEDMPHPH
Sequence of HDAC10 (Q969S8 whole entry, species assumed): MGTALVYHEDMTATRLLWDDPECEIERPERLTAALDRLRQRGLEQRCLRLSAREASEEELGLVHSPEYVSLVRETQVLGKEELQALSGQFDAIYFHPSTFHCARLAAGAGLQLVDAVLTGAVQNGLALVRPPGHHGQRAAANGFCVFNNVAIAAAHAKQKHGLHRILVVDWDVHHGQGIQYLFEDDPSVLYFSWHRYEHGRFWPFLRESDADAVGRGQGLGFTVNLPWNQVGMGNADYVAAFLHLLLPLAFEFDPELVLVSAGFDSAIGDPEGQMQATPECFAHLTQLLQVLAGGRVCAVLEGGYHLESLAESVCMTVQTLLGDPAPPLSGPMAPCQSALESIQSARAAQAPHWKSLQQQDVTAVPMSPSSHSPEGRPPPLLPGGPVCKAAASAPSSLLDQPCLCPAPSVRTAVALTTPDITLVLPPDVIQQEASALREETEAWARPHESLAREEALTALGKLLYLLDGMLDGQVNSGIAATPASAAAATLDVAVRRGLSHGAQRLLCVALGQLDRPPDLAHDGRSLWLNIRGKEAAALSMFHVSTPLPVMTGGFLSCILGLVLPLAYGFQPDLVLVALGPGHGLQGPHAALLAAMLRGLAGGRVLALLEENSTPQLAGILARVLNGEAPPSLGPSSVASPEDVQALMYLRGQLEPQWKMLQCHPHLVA

IC50 (HDAC2): > 200 µM
IC50 (HDAC6): 96.8 ± 1.98 µM
IC50 (HDAC10): > 200 µM
IC50 (BXPC-3 cells): 7.56 µM
glucose uptake (NIT-1 cells): no significant effect
Kd (SIRT6 [2]): 16 ± 0.313 µM
Km (SIRT6 [3]; [4]): did not alter
Vmax (SIRT6 [3]; [4]): obviously decreased
inhibition mode (SIRT6 [3]; competition and enzymatic kinetic assays): non-competitive inhibitor
Compound: Br.CN(C)C(SCCCCCCn1cnc2c(-c3cc(Br)c(Br)[nH]3)nccc21)=[N+](C)C.[Cl-] [Compound 8a]
effect of mutants on the inhibitory activity of 8a [1]: did not significantly affect
